Entries after “also recorded” stand apart in the source; their conditions may differ.
Assays:
Format in all cases: cell-based, human
[1] = test system: Rho; assay: Rho activation pulldown (Rho binding domain of Rhotekin) and western blot, MDA-MB-231 cells; conditions: MDA-MB-231, 250 nM; listed as MBQ-167
Method: Additionally, Rac, Cdc42, or […] activation was determined, by pulldowns using the P21-binding domain (PBD) of PAK, or Rho binding domain of Rhotekin as described (2, 16). The GTP bound active Rac, Cdc42, or Rho was detected by Western blot (N=3).

[2] = test system: GFP-HER2-BM, MDA-MB-468, Hs578t, Mia-PaCa-2, SKOV3, AGS, NCI-N87, SH-SY5Y cells; assay: Bright field cell phenotype, other mesenchymal cancer cell lines; conditions: 250 or 500 nM, 24 h
Method: FIG. 9. Human cancer cell phenotype following MBQ-167 treatment. Triple negative breast cancer (MDA-MB-468), aggressive pancreatic (Mia PaCa-2), ovarian (SKVO3), gastric carcinoma (AGS and NCI-N87) cell lines and a neuroblastoma (SH-SY5Y) cell line were treated with 0, 250 or 500 nM MBQ-167 for 24 h; Representative bright field images are shown for each cell line.
Human breast cancer cells were visualized by bright field microscopy following MBQ-167 treatment. At ≥100 nM, starting at six hours, MBQ-167 induced a loss of polarity in metastatic breast cancer cells. […] On the other hand, non-cancer mammary epithelial MCF10A and epithelial breast cancer MCF-7 cells were resistant to MBQ-167 and remained polarized and attached to each other and the substratum (FIG. 2A).

[3] = test system: MDA-MB-231 cells; assay: Cell cycle progression by flow cytometry (PI), MDA-MB-231; conditions: 250 nM; listed as MBQ-167
Method: Effect of MBQ-167 on cell survival.
MDA-MB-231 cells were incubated with 0 or 250 nM MBQ-167 for 48 h and all cells (detached and attached) were stained with PI, as in (27). Cell cycle stage was analyzed using a four-color flow cytometer (FACSCalibur, BD Biosciences, San Jose, Calif.). A total of 20,000 events were analyzed for each sample. List-mode files were collected using Cell Quest software 3.3 and analyzed using the Flow Jo software vX.0.7 (BD Biosciences, San Jose, Calif.).

## CCn1c2ccccc2c2cc(-n3nncc3-c3ccccc3)ccc21 [I-1, 9-ethyl-3-(5-phenyl-1H-1,2,3-triazol-1-yl)-9H-carbazole]
[1]
  effect on Rho activation: did not affect; also recorded: does not affect; also recorded: without affecting
[2]
  cell rounding and detachment phenotype: induced this phenotype
[3]
  effect on cell cycle: significantly arrested the cell cycle of MDA-MB-231 cells in the G2/M phase; also recorded: G2/M phase arrest
